Experimental findings from ChEMBL document CHEMBL1201862, “PubChem BioAssay data set” (2004) are described below.

Molecules are shown by their SMILES.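 Growth conditions: 96-well plates. Treatment: test compound, 48 hours, 5 concentrations. Analysis: linear interpolation between bracketing concentrations; unreached endpoints set to highest concentration. GI50: concentration for 50% inhibition of growth.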 The source made the active and inactive calls. No stated cut-off is given here; in the data, active = GI50 up to about 1.1 µM and inactive = higher.

Among the test systems are A498; ACHN; COLO 205; DU-145; HCT-15; HOP-62; HT-29; IGROV-1; K562; KM12; MDA-MB-435; NCI-H460; OVCAR-3; PC-3; RPMI-8226; SF-268; SF-295; SK-MEL-5; SW-620; HL-60.
Assay in all cases: inhibition of tumour cell growth, NCI panel, 48 h

On to `C[N+]1(CC[N+]2(C)CCCC2c2cccnc2)CCCC1c1cccnc1` (stereo not given), for which the GI50 is > 100 µM (inactive) with A498; > 100 µM (inactive) in the test on ACHN; 86.1 µM (inactive) with COLO 205; > 100 µM (inactive) with DU-145; greater than 100 µM with HCT-15; > 100 µM (inactive) in the test on HOP-62. The GI50 with HT-29 is 50.6 µM (inactive); in the test with IGROV-1, > 100 µM (inactive); with K562 it was 96.4 µM (inactive); with KM12, > 100 µM (inactive); in the test on MDA-MB-435 it was 33.2 µM (inactive); in the test with NCI-H460, > 100 µM (inactive). In addition, the GI50 was > 100 µM (inactive) in the test on OVCAR-3; > 100 µM (inactive) in the test on PC-3; 97.7 µM (inactive) in the test on RPMI-8226; > 100 µM (inactive) in the test on SF-268; > 100 µM (inactive) in the test with SF-295; > 100 µM (inactive) in the test with SK-MEL-5. Besides, the GI50 in the test with SW-620 is > 100 µM (inactive).

Regarding `COc1ccc(NC2CC(C)N(C(=O)c3ccccc3)O2)cc1` (stereo not given), the GI50 is > 10 µM (inactive) in the test with ACHN; > 10 µM (inactive) with COLO 205; > 10 µM (inactive) in the test with DU-145; greater than 10 µM with HCT-15; 9.91 µM (inactive) with HL-60; > 10 µM (inactive) in the test on HOP-62. Further, the GI50 in the test on HT-29, with IGROV-1, with K562, in the test on MDA-MB-435, with NCI-H460 and with OVCAR-3 was > 10 µM (inactive) in each case. Further, the GI50 in the test with PC-3, in the test on RPMI-8226, in the test on SF-268, with SF-295, in the test on SK-MEL-5 and with SW-620 was > 10 µM (inactive) throughout.

Regarding `Cn1c(NN)nc(-c2ccc([N+](=O)[O-])cc2)c(C#N)c1=O`, the GI50 in the test on ACHN is 12.2 µM (inactive); in the test with COLO 205 it was 20 µM (inactive); with DU-145 it was 16.4 µM (inactive); with HCT-15 it was 16.4 µM; in the test with HL-60, 30.8 µM (inactive); in the test on HOP-62 it was 14.1 µM (inactive). In addition, the GI50 is 12.8 µM (inactive) in the test with HT-29; 18.5 µM (inactive) in the test with IGROV-1; 38.2 µM (inactive) in the test with K562; 16.3 µM (inactive) with KM12; 17.9 µM (inactive) in the test with MDA-MB-435; 17.3 µM (inactive) with NCI-H460. The GI50 in the test with OVCAR-3 is 17.1 µM (inactive); with PC-3 it was 15.3 µM (inactive); in the test with RPMI-8226, 29.1 µM (inactive); in the test with SF-268, 16 µM (inactive); in the test with SF-295 it was 16.1 µM (inactive); in the test on SK-MEL-5, 4.25 µM (inactive). In the test with SW-620, the GI50 was 12.7 µM (inactive).

In the case of `CC(C)OP(=O)(OC(C)C)c1c(N)n[nH]c1Nc1ccccc1`, the GI50 in the test on A498 is > 100 µM (inactive); with ACHN it was > 100 µM (inactive); with COLO 205, > 100 µM (inactive); with DU-145, > 100 µM (inactive); in the test on HCT-15, greater than 100 µM; with HOP-62 it was > 100 µM (inactive). For the same compound, the GI50 in the test on HT-29, in the test with IGROV-1, in the test on K562, with KM12, in the test with MDA-MB-435 and with NCI-H460 was > 100 µM (inactive) throughout. Also, the GI50 in the test with OVCAR-3, with PC-3, with RPMI-8226, in the test on SF-268, in the test with SF-295 and in the test on SK-MEL-5 was > 100 µM (inactive) in each case. Besides, the GI50 with SW-620 was > 100 µM (inactive).

Regarding `CC(NC(=O)c1ccccc1)NC(=O)C(C)C(=O)Nc1ccccc1` (stereo not given), the GI50 was > 100 µM (inactive) in the test on ACHN; > 100 µM (inactive) with COLO 205; > 100 µM (inactive) with DU-145; greater than 100 µM in the test on HCT-15; > 100 µM (inactive) in the test on HL-60; > 100 µM (inactive) in the test on HT-29. Also, the GI50 in the test with IGROV-1, in the test on K562, in the test on KM12, in the test on MDA-MB-435, with NCI-H460 and in the test with PC-3 was > 100 µM (inactive) each time. Also, the GI50 in the test with RPMI-8226 is > 100 µM (inactive); in the test on SF-268 it was 62.2 µM (inactive); in the test on SF-295, > 100 µM (inactive); with SK-MEL-5, > 100 µM (inactive); with SW-620, > 100 µM (inactive).

In the case of `Cc1ccc(S(=O)(=O)N/N=C2/C3CC4CCC2C4C3)cc1` (stereo not given), the GI50 in the test on A498 was > 100 µM (inactive); in the test with ACHN it was > 100 µM (inactive); in the test with COLO 205 it was > 100 µM (inactive); in the test with DU-145, > 100 µM (inactive); in the test on HCT-15 it was greater than 100 µM; with HOP-62 it was > 100 µM (inactive). Also, the GI50 with HT-29, in the test on IGROV-1, in the test with KM12, in the test with MDA-MB-435, in the test with NCI-H460 and with OVCAR-3 was > 100 µM (inactive) in each case. Besides, the GI50 in the test on PC-3, with RPMI-8226, in the test on SF-268, in the test with SF-295, in the test with SK-MEL-5 and with SW-620 was > 100 µM (inactive) each time.

Take `CC1OC(OC2C(OC3CCC4(C)C(CCC5(C)C4CC=C4C6CC(C)(C)CCC6(C(=O)O)CCC45C)C3(C)CO)OCC(O)C2O)C(O)C(O)C1O` (stereo not given): the GI50 in the test with A498 is 14.2 µM (inactive); in the test with ACHN, 19 µM (inactive); in the test with COLO 205, 20.8 µM (inactive); in the test on DU-145, 18.9 µM (inactive); with HCT-15 it was 20.9 µM; in the test with HOP-62, 29.6 µM (inactive). The GI50 was 15.5 µM (inactive) in the test on HT-29; 15.6 µM (inactive) in the test with IGROV-1; 11.6 µM (inactive) in the test with K562; 7.1 µM (inactive) in the test on KM12; 18.7 µM (inactive) with MDA-MB-435; 19 µM (inactive) in the test on NCI-H460. For the same compound, the GI50 in the test on OVCAR-3 was 27.3 µM (inactive); in the test on PC-3, 13 µM (inactive); in the test on SF-268, 17.1 µM (inactive); in the test with SF-295, 15.1 µM (inactive); with SK-MEL-5, 17.8 µM (inactive); in the test on SW-620, 11.7 µM (inactive).

Take `C=[N+](CNC(=O)CNC(=O)C(Cc1ccccc1)NC(=O)OC(C)(C)C)C(=O)CNC(=O)C(Cc1ccccc1)NC(=O)OC(C)(C)C` (stereo not given): the GI50 in the test on A498 was > 100 µM (inactive); in the test on ACHN it was > 100 µM (inactive); in the test on COLO 205 it was > 100 µM (inactive); in the test on DU-145, > 100 µM (inactive); in the test on HCT-15, greater than 100 µM; with HOP-62, > 100 µM (inactive). Also, the GI50 in the test with HT-29, with IGROV-1, in the test on K562, in the test with KM12, in the test on MDA-MB-435 and in the test on NCI-H460 was > 100 µM (inactive) throughout. The GI50 with OVCAR-3, in the test with PC-3, with RPMI-8226, in the test on SF-268, in the test with SF-295 and in the test on SK-MEL-5 was > 100 µM (inactive) throughout. Besides, the GI50 with SW-620 was > 100 µM (inactive).

Turning to `CCCCOc1ccc(S(=O)(=O)/N=C(\NN)Nc2ccc(Cl)cc2)cc1`, the GI50 with A498 was 47.1 µM (inactive); in the test with ACHN, 69.7 µM (inactive); in the test with COLO 205, 18 µM (inactive); with DU-145 it was 17.2 µM (inactive); in the test on HCT-15, 36 µM; in the test with HL-60 it was 31 µM (inactive). In addition, the GI50 in the test with HOP-62 is 20.4 µM (inactive); in the test with HT-29, 22.3 µM (inactive); with IGROV-1, 26.1 µM (inactive); in the test on K562, 31.7 µM (inactive); in the test with KM12, 32.7 µM (inactive); with NCI-H460, 16.4 µM (inactive). In addition, the GI50 with OVCAR-3 is 20.8 µM (inactive); in the test with PC-3 it was 17.7 µM (inactive); with RPMI-8226, 30.1 µM (inactive); in the test with SF-268, 17.4 µM (inactive); in the test with SF-295 it was 23.4 µM (inactive); in the test with SK-MEL-5, 35.9 µM (inactive). Further, the GI50 in the test on SW-620 is 29.4 µM (inactive).

`Oc1ccc2ccccc2c1/N=N/c1ccc(Cl)cc1`: the GI50 in the test on ACHN was > 100 µM (inactive); with COLO 205, 53 µM (inactive); in the test with DU-145, > 100 µM (inactive); with HCT-15, greater than 100 µM; in the test on HL-60 it was > 100 µM (inactive); in the test on HOP-62, > 100 µM (inactive). In addition, the GI50 in the test on HT-29, in the test with IGROV-1, in the test with K562, in the test with KM12, in the test on MDA-MB-435 and with OVCAR-3 was > 100 µM (inactive) in each case. Further, the GI50 with PC-3, with RPMI-8226, in the test on SF-268, with SF-295, with SK-MEL-5 and with SW-620 was > 100 µM (inactive) throughout.

`CC1=CC(=O)C(=CN2C(=O)/C(=C\c3cccnc3)NC2=S)C(=O)O1`: the GI50 was > 100 µM (inactive) in the test on ACHN; > 100 µM (inactive) in the test on COLO 205; > 100 µM (inactive) with DU-145; greater than 100 µM with HCT-15; 54.3 µM (inactive) with HL-60; > 100 µM (inactive) in the test on HOP-62. Besides, the GI50 in the test on HT-29, with IGROV-1, in the test with KM12, in the test with MDA-MB-435, in the test on NCI-H460 and in the test with OVCAR-3 was > 100 µM (inactive) each time. Also, the GI50 in the test with PC-3, with SF-295, in the test with SK-MEL-5 and in the test on SW-620 was > 100 µM (inactive) throughout.
